Data published in PMC6364417, “Kinase inhibitor library screening identifies synergistic drug combinations effective in sensitive and resistant melanoma cells” (Journal of Experimental & Clinical Cancer Research : CR, 2019).

What was measured:
Experiment in all cases: Kinase inhibitor library screening, PrestoBlue cell viability, 1 or 10 μM, 72 h
501Mel cells (parental) = settings: 72 h; for Cell viability in kinase inhibitor library screening, 501Mel Parental, 1μΜ / Cell viability in kinase inhibitor library screening, 501Mel Parental, 10μΜ: in %
Experimental: (§1) After 72 h of treatment, cell viability was assessed using the PrestoBlue Cell Viability Reagent (ThermoFisher Scientific). Measurements were performed with the CLARIOstar Monochromator microplate reader (BMG Labtech).
(§2) Kinase inhibitor library screening. […] Each cell line was treated in its sensitive form (parental), and also as 2 resistant derivatives, which were made resistant to either Vemurafenib (XP) or Dabrafenib (GP). Drugs were added at 2 different concentrations, 1 and 10 μM, for 72 h and cell viability was assessed using the PrestoBlue Cell Viability assay. Results are depicted as % viability compared to untreated cells. Each cell line was analyzed at least in duplicate. […] (XLSX 95 kb)

[1] = tested on: A375-XP cells (Vemurafenib-resistant); settings: for Cell viability in kinase inhibitor library screening, A375 XP, 1μΜ / Cell viability in kinase inhibitor library screening, A375 XP, 10μΜ: 72 h
Experimental: as §1, §2

[2] = tested on: IGR37-GP cells (Dabrafenib-resistant); settings: for Cell viability in kinase inhibitor library screening, IGR37 GP, 10μΜ / Cell viability in kinase inhibitor library screening, IGR37 GP, 1μΜ: 72 h; for Cell viability in kinase inhibitor library screening, IGR37 GP, 1μΜ: in %
Experimental: as §1, §2

[3] = tested on: 501Mel-XP cells (Vemurafenib-resistant); settings: 72 h; for Cell viability in kinase inhibitor library screening, 501Mel XP, 1μΜ / Cell viability in kinase inhibitor library screening, 501Mel XP, 10μΜ: in %
Experimental: as §1, §2

IGR37 cells (parental) = settings: for Cell viability in kinase inhibitor library screening, IGR37 Parental, 1μΜ / Cell viability in kinase inhibitor library screening, IGR37 Parental, 10μΜ: 72 h, in %
Experimental: as §1, §2

[4] = tested on: 501Mel-GP cells (Dabrafenib-resistant); settings: 72 h; for Cell viability in kinase inhibitor library screening, 501Mel GP, 1μΜ / Cell viability in kinase inhibitor library screening, 501Mel GP, 10μΜ: in %
Experimental: as §1, §2

[5] = tested on: IGR37-XP cells (Vemurafenib-resistant); settings: for Cell viability in kinase inhibitor library screening, IGR37 XP, 10μΜ / Cell viability in kinase inhibitor library screening, IGR37 XP, 1μΜ: 72 h; for Cell viability in kinase inhibitor library screening, IGR37 XP, 1μΜ: in %
Experimental: as §1, §2

[6] = tested on: A375-GP cells (Dabrafenib-resistant); settings: for Cell viability in kinase inhibitor library screening, A375 GP, 1μΜ / Cell viability in kinase inhibitor library screening, A375 GP, 10μΜ: 72 h
Experimental: as §1, §2

A375 cells (parental) = settings: for Cell viability in kinase inhibitor library screening, A375 Parental, 10μΜ / Cell viability in kinase inhibitor library screening, A375 Parental, 1μΜ: 72 h
Experimental: as §1, §2

Structure (SMILES)	Cell viability in kinase inhibitor library screening, 501Mel Parental, 1μΜ (501Mel cells (parental))	Cell viability in kinase inhibitor library screening, 501Mel Parental, 10μΜ (501Mel cells (parental))	Cell viability in kinase inhibitor library screening, A375 XP, 1μΜ [1]	Cell viability in kinase inhibitor library screening, A375 XP, 10μΜ [1]	Cell viability in kinase inhibitor library screening, IGR37 GP, 10μΜ [2] [%]	Cell viability in kinase inhibitor library screening, IGR37 GP, 1μΜ [2]	Cell viability in kinase inhibitor library screening, 501Mel XP, 1μΜ [3]	Cell viability in kinase inhibitor library screening, 501Mel XP, 10μΜ [3]	Cell viability in kinase inhibitor library screening, IGR37 Parental, 1μΜ (IGR37 cells (parental))	Cell viability in kinase inhibitor library screening, IGR37 Parental, 10μΜ (IGR37 cells (parental))	Cell viability in kinase inhibitor library screening, 501Mel GP, 1μΜ [4]	Cell viability in kinase inhibitor library screening, 501Mel GP, 10μΜ [4]	Cell viability in kinase inhibitor library screening, IGR37 XP, 10μΜ [5] [%]	Cell viability in kinase inhibitor library screening, IGR37 XP, 1μΜ [5]	Cell viability in kinase inhibitor library screening, A375 GP, 1μΜ [6]	Cell viability in kinase inhibitor library screening, A375 GP, 10μΜ [6]	Cell viability in kinase inhibitor library screening, A375 Parental, 10μΜ (A375 cells (parental))	Cell viability in kinase inhibitor library screening, A375 Parental, 1μΜ (A375 cells (parental))	further results
Cn1c(=O)n(-c2ccc(C(C)(C)C#N)cc2)c2c3cc(-c4cnc5ccccc5c4)ccc3ncc21 [BEZ235 (NVP-BEZ235)]	13.9	2.6	20.9	13.2	6.1	53.8	11.4	0.9	26.1	12.4	19.1	6.4	5.2	49.3	22.0	8.5	10.9	23.9	
CCN1CCN(c2ccc(Nc3cc(N(C)C(=O)Nc4c(Cl)c(OC)cc(OC)c4Cl)ncn3)cc2)CC1 [BGJ398 (NVP-BGJ398)]																			viability at 1 µM (501Mel cells (parental); Homo sapiens, read-out: cell viability, 501Mel Parental, 1μΜ): 96.6%; viability at 10 µM (501Mel cells (parental); Homo sapiens, read-out: cell viability, 501Mel Parental, 10μΜ): 0.424%; viability at 1 µM ([1]; Homo sapiens, A-375, 72 h, read-out: cell viability, A375 XP, 1μΜ): 104%; viability at 10 µM ([1]; Homo sapiens, A-375, 72 h, read-out: cell viability, A375 XP, 10μΜ): 3.9%; viability at 1 µM ([2]; Homo sapiens, IGR-37, 72 h, read-out: cell viability, IGR37 GP, 1μΜ): 87.7%; viability at 10 µM ([2]; Homo sapiens, IGR-37, 72 h, read-out: cell viability, IGR37 GP, 10μΜ): 3.2%; viability at 1 µM ([3]; Homo sapiens, read-out: cell viability, 501Mel XP, 1μΜ): 97.9%; viability at 10 µM ([3]; Homo sapiens, read-out: cell viability, 501Mel XP, 10μΜ): -0.109%; viability at 1 µM (IGR37 cells (parental); Homo sapiens, IGR-37, 72 h, read-out: cell viability, IGR37 Parental, 1μΜ): 100%; viability at 10 µM (IGR37 cells (parental); Homo sapiens, IGR-37, 72 h, read-out: cell viability, IGR37 Parental, 10μΜ): 4.3%; viability at 1 µM ([4]; Homo sapiens, read-out: cell viability, 501Mel GP, 1μΜ): 108%; viability at 10 µM ([4]; Homo sapiens, read-out: cell viability, 501Mel GP, 10μΜ): 0.142%; viability at 1 µM ([5]; Homo sapiens, IGR-37, 72 h, read-out: cell viability, IGR37 XP, 1μΜ): 97.5%; viability at 10 µM ([5]; Homo sapiens, IGR-37, 72 h, read-out: cell viability, IGR37 XP, 10μΜ): 1%; viability at 1 µM ([6]; Homo sapiens, A-375, 72 h, read-out: cell viability, A375 GP, 1μΜ): 101%; viability at 10 µM ([6]; Homo sapiens, A-375, 72 h, read-out: cell viability, A375 GP, 10μΜ): 6.6%; viability at 1 µM (A375 cells (parental); Homo sapiens, A-375, 72 h, read-out: cell viability, A375 Parental, 1μΜ): 101%; viability at 10 µM (A375 cells (parental); Homo sapiens, A-375, 72 h, read-out: cell viability, A375 Parental, 10μΜ): 9%
CC[C@@H]1C(=O)N(C)c2cnc(Nc3ccc(C(=O)N[C@H]4CC[C@H](N5CCN(CC6CC6)CC5)CC4)cc3OC)nc2N1C(C)C [BI6727 (Volasertib)]	63.2	1.3	37.1	16.8	8.8	75.9	9.9	0.4	36.2	43.0	26.5	0.363	2.7	65.8	22.8	28.0	29.8	21.7	
CC[C@@H]1C(=O)N(C)c2cnc(Nc3ccc(C(=O)NC4CCN(C)CC4)cc3OC)nc2N1C1CCCC1 [BI 2536]	77.3	1.6	42.2	8.5	2.8	82.9	29.2	-0.237	71.6	1.3	52.3	0.263	1.5	76.3	31.1	15.5	30.1	31.0	
